Source: PMC10312992 (ACS Omega, 2023)

Assays:
[1] = system: erythrocytes (heparinized bovine blood); test: hemolytic activity; assay type: cell-based; conditions: 35 min at 37 °C, 10^8 cells/mL; PBS negative control 2.45 ± 0.01%
α-glucosidase = α-glucosidase inhibition assay; assay type: biochemical; conditions: at 0.5 mM; mean ± S.E.M., n = 3

Row | Compound | hemolysis (%) [1] [%] | α-glucosidase (%) inhibition (α-glucosidase) [%]
1 | CC(Sc1nnc(Cc2c[nH]c3ccccc23)o1)C(=O)NCCc1ccccc1 (stereo not shown) [8d, N-(2-Phenethyl)-2-({5-((1H-indol-3-yl)methyl)-1,3,4-oxadiazol-2-yl}sulfanyl)propanamide] | 0.05 ± 0.01 | 93.38 ± 0.38
2 | CCc1ccccc1NC(=O)C(C)Sc1nnc(Cc2c[nH]c3ccccc23)o1 (stereo not shown) [8h, N-(2-Ethylphenyl)-2-({5-((1H-indol-3-yl)methyl)-1,3,4-oxadiazol-2-yl}sulfanyl)propanmide] | 0.83 ± 0.01 | 98.21 ± 0.31
3 | COC(=O)c1ccccc1NC(=O)C(C)Sc1nnc(Cc2c[nH]c3ccccc23)o1 (stereo not shown) [8l, N-((2-Methoxycarbonyl)phenyl)-2-({5-((1H-indol-3-yl)methyl)-1,3,4-oxadiazol-2-yl}sulfanyl)propanamide] | 8.16 ± 0.02 | 97.56 ± 0.57
4 | C[C@H]1O[C@H](O[C@H]2[C@H](O)[C@@H](O)[C@@H](O[C@H]3[C@H](O)[C@@H](O)C(O)O[C@@H]3CO)O[C@@H]2CO)[C@H](O)[C@@H](O)[C@@H]1N[C@H]1C=C(CO)[C@@H](O)[C@H](O)[C@H]1O (stereo partly shown) [acarbose, reference compound] | – | 92.23 ± 0.14
